From patent publication US20140147848A1 (UNIVERSITY OF TSUKUBA, priority 2012, published 2014)
Like-named read-outs stand apart in the source and are kept apart here.

Experiments:
Caco-2 cells [1] = test system: Caco-2 cells
Protocol: Caspase assay was performed using Immunochemistry Technologies, LLC's Apoptosis detection kit, according to the manufacturer's protocol. […] After treatment, approximately 290-300 μl of each cell suspension was transferred to sterile tubes (e.g., cell density should be around 1×10^7 cells/ml). 10 μl of 30×FLICA solution was added directly to the 290-300 μl cell suspensions, and then incubate cells for 1 hour at 37° C. under 5% CO2, protecting the tubes from light. 2 ml of 1× wash buffer was added to each tube. The tubes were then mix and centrifuge cells at <400×g for 5 minutes at room temperature (RT). The supernatant was carefully remove and discard. The cell pellet was resuspended in 1 ml 1× wash buffer, and the cells were centrifuged again at <400×g for 5 minutes at RT. The supernatant was carefully removed and discarded. The cells were resuspended in 400 μl PBS, about 100 μl of the cell suspensions was placed into each of 2 wells of a black microplate. Finally the fluorescence intensity of sulforhodamine (excitation 550 nm, emission 595 nm) was measured and used a fluorescence plate reader.

Caco-2 monolayer = test system: Caco-2 monolayer
Protocol: TEER measurements were obtained by growing the cells at a density of 2·10^5 cells/cm^2 in 6.5-mm diameter collagen coated Transwell (0.4 μm PTFE membrane) on 24-well plates. The medium was changed every 2 days, and the cells were cultured for 12 days to establish monolayer integrity. TEER measurements were performed according to the method of Hashimoto et al. (1997). After a 12-day culture period, the cell monolayer was rinsed with PBS.

Caco-2 cells [2] = details: 5 ppm and 60 ppm LAS, 24 hours, vs control
Protocol: Total protein was extracted from all three populations 24 hours after treatment, as described in detail below. […] The labeled spots (i.e., the differentially expressed proteins) were chosen based on the results of software analysis designed to assess the respective fold changes of protein levels in the each of the respective spots.
Caco-2 cells were seeded at 2×10^5 cells/ml density in Petri dishes. […] The cells were rinsed three times with ice-cold PBS, scraped gently, and collected in PBS. […] After desalting the protein was extracted using Amicon Ultra centrifugal filters (Ultracel-10K membrane) from Millipore, and the final protein amount was determined using the 2-D Quant kit (GE Healthcare).
The first dimension electrophoresis was carried out on an Ettan IPGphor II (GE Healthcare) apparatus. […] The destained gels were then scanned at 300 dpi resolution, and the images were analyzed with Image Master™ 2D software (ver. 4.9: GE Healthcare). For statistical quantification, three experiments were performed for each experiment. […] Spots were expressed as percentages (% vol) of relative volumes by integrating the value of each pixel in the spot area as described previously in our study (see, e.g., Han et al. 2010). […]

Calreticulin (CALR) = experiment: Real-time PCR, CALR expression in Caco-2 cells; details: LAS 60 ppm
Protocol: (§2) Caco-2 cells treatment and RNA extraction: Caco-2 cells were seeded at 2×10^5 cells/ml density in Petri dishes. […] Total RNA was then purified using the ISOGEN kit (Nippon GeneCo Ltd., Japan) following the manufacturer's instructions.
(§3) cDNA synthesis: Total RNA was quantified using the Thermo scientific Nanodrop 2000 (USA), and reverse transcription reactions were performed using the Superscript III reverse transcriptase kit (Invitrogen, Carlsbad, Calif.) using 1 μg of total RNA. Briefly, RNA was denatured by incubation at 65° C. for 5 min, with 1 μL oligo (dT) primers, and chilled at 4° C. SuperScript III reverse transcriptase was then added and the reaction mix was incubated at 42° C. for 60 min, and then for 10 min at 70° C.
Real-time PCR: The expression of TPM3, THIO, CALR and HSP7C, respectively, in treated Caco-2 cells was determined by real-time PCR using glyceraldehyde 3-phosphate dehydrogenase (GAPDH) as an internal positive control. Oligos for TPM3 (Hs01900726_g1), THIO (Hs01555212_g1), CALR (Hs00189032_m1), HSP7C (Hs03045200_g1) and GAPDH (Hs02758991_g1) were inventoried gene expression assays (see Table 5). TaqMan real-time PCR amplification reactions were performed in a 20 μl reaction mixtures containing: 10 μl of TaqMan Universal PCR Master Mix UNG (2×), 9 μl of template cDNA (100 ng μl^−1) and 1 μl of the corresponding primer/probe mix, using an AB 7500 fast real-time system (Applied Biosystems). For the amplification, the following cycling conditions were applied: 2 min at 50° C., 10 min at 95° C., and 40 cycles of 15 s at 95° C./1 min at 60° C.

Caco-2 cells [3] = test system: Caco-2 cells; remark: listed apart in the source
Protocol: Specifically, Caco-2 cells were treated with concentrations of 0, 1 ppm, 5 ppm, 50 ppm, 60 ppm, and 70 ppm and analyzed by an MTT assay at 24 h, 48 h, and 72 h post-treatment.
The human colon adenocarcinoma cell line Caco-2 was kindly provided by Dr. Makoto Shimizu of the University of Tokyo, Japan. Caco-2 cells were cultured in Dulbecco's modified Eagle's medium (DMEM; Sigma) supplemented with 10% fetal calf serum (FCS), 1% nonessential amino acids (NEAA) and 1% Penicillin/Streptomycin (5 mg/ml each), and incubated in a 95% air and 5% CO2 atmosphere at 37° C. The cells were sub-cultured at a split ratio of 1:3 every 2 days.
Cell viability was assessed using a conventional MTT reduction assay. […] At the respective time points, 10 μl of MTT stock solution (5 mg/ml) was added to the culture medium and incubated for 6 h at 37° C. The formazan was extracted with 100 μl 10% SDS (W/V), and the absorbance was measured with a microliter plate reader at 570 nm wavelength.

Caco-2 cells [4] = test system: Caco-2 cells; remark: listed apart in the source
Thioredoxin (THIO) = details: LAS 60 ppm
Excerpt: (§1) Note that in all figures asterisks represent the significance of the difference compared to the control, e.g., * for p value<0.05 and ** for p value<0.01.

[5] = test system: Tropomyosin alpha-3 chain (TPM3); experiment: Real-time PCR, TPM3 expression in Caco-2 cells; details: LAS 60 ppm
Protocol: as §2, §3
Real-time PCR: The expression of TPM3, THIO, CALR and HSP7C, respectively, in treated Caco-2 cells was determined by real-time PCR using glyceraldehyde 3-phosphate dehydrogenase (GAPDH) as an internal positive control. […] TaqMan real-time PCR amplification reactions were performed in a 20 μl reaction mixtures containing: 10 μl of TaqMan Universal PCR Master Mix UNG (2×), 9 μl of template cDNA (100 ng μl^−1) and 1 μl of the corresponding primer/probe mix, using an AB 7500 fast real-time system (Applied Biosystems). For the amplification, the following cycling conditions were applied: 2 min at 50° C., 10 min at 95° C., and 40 cycles of 15 s at 95° C./1 min at 60° C.

[6] = test system: Heat shock cognate 71 kDa protein (HSP7C); details: LAS 60 ppm, 12 hours after exposure
Protocol: as §2, §3
Real-time PCR: The expression of TPM3, THIO, CALR and HSP7C, respectively, in treated Caco-2 cells was determined by real-time PCR using glyceraldehyde 3-phosphate dehydrogenase (GAPDH) as an internal positive control. […] TaqMan real-time PCR amplification reactions were performed in a 20 μl reaction mixtures containing: 10 μl of TaqMan Universal PCR Master Mix UNG (2×), 9 μl of template cDNA (100 ng μl^−1) and 1 μl of the corresponding primer/probe mix, using an AB 7500 fast real-time system (Applied Biosystems). […]

Caco-2 cells [7] = test system: Caco-2 cells; remark: listed apart in the source
Protocol: Cells were then harvested by centrifugation, where the supernatant was discarded and the pellet was resuspended in 1 ml of PBS. Genomic DNA was then purified using commercial DNA purification kit from QIAGEN. 1 μg of DNA sample was added to 2 μl of loading buffer (Wako) and then loaded onto a 2% agarose gel. The electrophoresis was carried out at a constant voltage of 100 V for 20 min and the DNA was finally observed under ultraviolet illumination after staining with ethidium bromide.

Caco-2 cells [8] = details: LAS 60 ppm
Protocol: as §1
The determination of intracellular ROS was performed using the OxiSelect™ Intracellular ROS Assay Kit, from CELL BIOLABS, INC., according to the manufacturer's protocol. Briefly, Caco-2 cells were cultured in a 96-well plate for 24 h, and then pre-incubated for 60 min with DCFH-DA. […] After a different incubation times of, for example, 1 h, 3 h, 6 h, and 12 h, the fluorescence was read using a plate reader at 480 nm/530 nm excitation/emission wavelengths. The ROS content was determined by comparison with the predetermined DCF standard curve.

With sodium dodecylbenzenesulfonate [LAS] the “cell death pathway (caspase assay)” value (Caco-2 cells [1]) was “non-apoptotic pathway”, the “relative electrical resistance (TEER)” value (Caco-2 monolayer; 5, 10, 30, and 60 ppm LAS over time) was “decreased with increasing concentration of LAS” and the “time to decrease in barrier function efficiency” value (Caco-2 monolayer; higher concentrations of LAS) was ≤ 30 min. For the same substance, the “change in protein expression, spots 1, 2, 4, 5, 7, 8, 9, 10, and 12” value (Caco-2 cells [2]) was “up-regulation”, the “change in protein expression, spots 3, 6, 11, and 13” value (Caco-2 cells [2]) was “down-regulation” and the “CALR expression relative to control” value (Calreticulin (CALR); 3 hours post-treatment) was “about 1.6 fold”. For the same substance, the “CALR expression relative to control” value (Calreticulin (CALR); 12 hours post-treatment) was “decreased to baseline levels”, the “CALR expression relative to control” value (Calreticulin (CALR); 24 hours after exposure) was “once again overexpressed” and the “cytotoxic effect on Caco-2 cells (MTT)” value (Caco-2 cells [3]; 0-70 ppm LAS, 24 h, 48 h, 72 h post-treatment) was “strong cytotoxic effect”. For the same substance, the “cytotoxic effect on Caco-2 cells (MTT)” value (Caco-2 cells [3]; LAS 5 ppm) was “no obvious cytotoxic effect”, the intracellular calcium concentration (Caco-2 cells [4]; 3 and 6 hours post-treatment) was “decrease of the intracellular calcium concentration” and the intracellular calcium concentration (Caco-2 cells [4]; 12 hours, continuing until 24 hours post-treatment) was “excessive increase of the intracellular calcium concentration”. For the same substance, the “THIO overexpression relative to the control” value (Thioredoxin (THIO); 3 hours) was 1.4 fold, the “THIO overexpression relative to the control” value (Thioredoxin (THIO); 6 hours) was 1.4 fold and the “THIO overexpression relative to the control” value (Thioredoxin (THIO); 12 hours) was “about 1.3 fold”. For the same substance, the “THIO overexpression relative to the control” value (Thioredoxin (THIO); 24 hours) was “about 1.1 fold”, the “TPM3 overexpression relative to the control” value ([5]; 3 hours) was 1.2 fold and the “TPM3 overexpression relative to the control” value ([5]; 6 hours post-exposure) was “slightly below that of the control”. For the same substance, the “TPM3 overexpression relative to the control” value ([5]; after 6 hours (time not given)) was ~1.05 fold, the “HSP7C expression relative to control” value [6] was “significantly overexpressed” and the DNA fragmentation (Caco-2 cells [7]) was “no DNA fragmentation was observed”. The ROS production (Caco-2 cells [8]; 12 hours post-treatment) was “returned to baseline levels (or lower)” and the ROS production (Caco-2 cells [8]; within the first 6 hours after treatment) was “significant ROS production”.
